Results from patent US7022732B2, “Propanolamine derivative having 1, 4-benzodioxane ring” (Nisshin Pharma Inc., priority 2001, dated 2006).

Target: T1, human β3 adrenergic receptor (Homo sapiens, UniProt P13945)
T1 construct: expressed in transfected cells; host or cells: CHO cells (clone G4-I, kept under Geneticin selection)
Assay: cAMP production in G4-I cells, stimulating activity of human β3 adrenergic receptor (cAMP EIA)
Format: cell-based
Details: cAMP production relative to isoproterenol maximum, CHO cells (G4-I) expressing human β3 receptor
Protocol: Representative compounds of the invention were assayed for their stimulating activity of human β3 adrenergic receptor. In the tests, there was used G4-I cloned with CHO cells expressing human β3 adrenergic receptor genes. A cAMP EIA kit for use was available from Amersham Farmacia.
G4-I was incubated under the atmosphere of 5% CO2 at 37° C. in a Han's F12 Nutrient Mixture medium containing 10% fetal calf serum, penicillin 100 U/mL, streptomycin 100 μg/mL, amphotericin B 25 μg/mL and Geneticin 400 μg/mL. When the reaction for cAMP production was carried out, frozen cells stocked were incubated for 3 days and then treated with trypsin to prepare a cell suspension. The cell suspension was diluted to 2×10^5 cells/mL with the medium. Then 1 ml each of the diluted suspension was dispensed into a 12-well plate dish.
The cells cultured for 24 hours were used to carry out the cAMP production reaction.
The culture medium was removed from the cells incubated on the 12-well plate dish. The cells were washed twice with 1 mL of Wash Buffer previously warmed to 37° C. and then 0.9 mL of Reaction Buffer was added. Cultivation was carried out on a water bath at 37° C. for 5 minutes and then 0.1 mL of an aqueous solution of the test compound or isoproterenol was added thereto. Reaction was further allowed to take place at 37° C. for 30 minutes. The reaction solution was taken out and then washed twice with 2 mL of D-PBS(-) followed by addition of 1 mL of the Extraction Buffer. The extraction procedure was performed using a plate mixer at 4° C. for 1 hour. The extract was stored at −20° C.
The cell extract frozen at −20° C. was thawed at 4° C. The cAMP of the extract in each well was assayed by means of a cAMP-EIA kit manufactured by Amersham Farmacia. Assay was performed in accordance with the manual attached to the kit. Adsorbance in a 96-well plate was determined using a microplate reader (Model Spectra MAX 250) manufactured by Molecular Device.
The protein amount of the above cell extract was assayed according to the dye-binding method using a CBB solution for quantitative determination of protein (available from Bio-Rad). Bovine serum albumin was used as a protein standard, and absorbance was determined using the above microplate reader (Model Spectra MAX 250) manufactured by Molecular Device.
Determination of cAMP and protein amounts was carried out in duplicate and mean values were adopted as measured values. The cAMP production amount of each sample was represented in terms of a numerical value of the cAMP amount (pmol) divided by cell protein amount (mg) (pmol/mg protein). […] For each sample, cAMP production amount was calculated and a relative cAMP production amount to the maximum cAMP production amount of isoproterenol (% of isoproterenol Max) was determined.

T1 sequence (P13945 whole entry): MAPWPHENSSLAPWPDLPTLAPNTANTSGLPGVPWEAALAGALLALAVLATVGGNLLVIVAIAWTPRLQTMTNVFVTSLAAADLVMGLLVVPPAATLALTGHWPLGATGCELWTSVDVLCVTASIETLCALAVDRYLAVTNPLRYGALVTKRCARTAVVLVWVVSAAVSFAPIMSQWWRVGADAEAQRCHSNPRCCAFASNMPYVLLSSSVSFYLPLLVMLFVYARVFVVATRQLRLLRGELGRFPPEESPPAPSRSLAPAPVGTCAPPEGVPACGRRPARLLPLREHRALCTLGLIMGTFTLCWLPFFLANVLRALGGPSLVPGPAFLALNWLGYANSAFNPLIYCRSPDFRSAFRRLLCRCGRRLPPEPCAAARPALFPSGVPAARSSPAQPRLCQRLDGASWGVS

SMILES | Intrinsic Activity (% of ISP) (test compound 1 μM) | Intrinsic Activity (% of ISP) (test compound 10 μM)
COc1cc(O)ccc1OC[C@@H](O)CN[C@H](C)Cc1ccc2c(c1)OC[C@H](C(=O)O)O2 [Example 16, 6-[2-(R)-[2-(S)-Hydroxy-3-(4-hydroxy-2-methoxyphenoxy)-propylamino]propyl]-2,3-dihydro-1,4-benzodioxine-2-(R)-carboxylic acid] | 61 % of ISP | –
CS(=O)(=O)Nc1cc(OC[C@@H](O)CNCCc2ccc3c(c2)OC[C@H](C(=O)O)O3)ccc1O [Example 4, 6-[2-[2-(S)-Hydroxy-3-(4-hydroxy-3-methanesulfonamido-phenoxy]propylamino]ethyl]-2,3-dihydro-1,4-benzodioxine-2-(R)-carboxylic acid] | 98 % of ISP | –
C[C@H](Cc1ccc2c(c1)OC[C@H](C(=O)O)O2)NC[C@H](O)COc1ccc(O)c(NS(C)(=O)=O)c1 [Example 2, 6-[2-(R)-[2-(S)-Hydroxy-3-(4-hydroxy-3-methanesulfonamidophenoxy)propylamino]propyl]-2,3-dihydro-1,4-benzodioxine-2-(R)-carboxylic acid] | 76 % of ISP | –
C[C@H](Cc1ccc2c(c1)OC[C@H](C(=O)O)O2)NC[C@H](O)COc1ccc(O)cc1 [Example 12, 6-[2-(R)-[2-(S)-Hydroxy-3-(4-hydroxyphenoxy)propylamino]-propyl]-2,3-dihydro-1,4-benzodioxine-2-(R)-carboxylic acid] | – | 73 % of ISP
